Results as given in patent US20230340137A1, “METHODS, THERAPIES AND USES FOR TREATING CANCER” (PFIZER INC., priority 2020, published 2023).

Experiments:
[1] = Phase 1 clinical study NCT03269136, preliminary pharmacokinetic analysis; type: in vivo, human; conditions: preliminary pharmacokinetic (PK) analysis
Description: Therefore, a fixed dose is suitable for the dosing of PF-06863135. Based on the encouraging efficacy data and safety data obtained from Part I of Study, a promising RP2D for Part 2A of the study could be a fixed dose equivalent of 1000 μg/kg (ie, 76 mg) of PF-06863135 either in Q1W or Q2W. A fixed dose equivalent of 600 μg/kg (ie, 44 mg) will likely be used as a priming dose on cycle zero day 1. The initial dose of 44 mg serves as a priming dose and is designed to mitigate the CRS symptoms of the later 76 mg dose. […] Subsequently, the 44 mg (priming) and 76 mg (maintenance) were selected as the single agent RP2D dose. Patient will be administered a single priming dose of 44 mg SC of PF06863135, followed by maintenance dosing of 76 mg Q1W SC or 76 mg Q2W starting 7 days after the single priming dose.

Raji-luc lymphoma cells = test: BCMAxCD3 mediated cell killing with human T cells, with or without GSI (luciferase viability); type: cell-based; conditions: with or without 1 μM GSI, 60 hours
Description: CD3^+ T cells from PBMCs (Stem Cell Technologies) were negatively selected using EasySep Human T cell enrichment kit (Stem Cell Technologies). 10,000 target lymphoma cells expressing luciferase (Raji-luc) were treated with 1 μM GSI. After 24 hours, cells were seeded with 50,000 CD3^+ pan T cells in a clear 96-well V-bottom plate. Cells were further treated with a range of BCMAxCD3 bispecific concentrations with or without 1 μM GSI. 60 hours after treatment, luciferase activity in treated cells was analyzed using NeoLite reagent kit (Perkin Elmer) and acquired on VictorX multimode plate reader (Perkin Elmer). Cell viability was calculated by dividing luciferase activity of treated cells over luciferase activity of untreated control (no BCMAxCD3 bispecific antibody added).

[2] = test system: CD8+ T cells co-cultured with MM.1S multiple myeloma cells; test: PD-1 induction on CD8+ T cells co-cultured with MM.1S-luc cells, flow cytometry; type: cell-based, human; conditions: 1 nM BCMAxCD3 bispecific
Description: CD3+ T cells from PBMCs (Stem Cell Technologies) were negatively selected using EasySep Human T cell enrichment kit (Stem Cell Technologies). 10,000 target Multiple Myeloma MM.1S cells expressing luciferase (MM.1S-luc) were seeded with 50,000 CD3^+ pan T cells in a clear 96-well V-bottom plate. Cells were treated with 1 nM BCMAxCD3 bispecific antibody and PD-1 expression was analyzed at 3, 24, 48 and 72 hours after addition of the BCMAxCD3 bispecific. At the specified time points, cells were collected from the wells, washed with PBS+2% FBS, and stained with ZombieNlR Viability dye (Biolegend) in PBS for 20 minutes at room temperature, followed by staining with antibodies against human CD8 and PD-1 (Biolegend). Samples were analyzed using FlowJo flow cytometry analysis software. Dead cells were removed from analysis by gating on ZombieNlR negative population. Samples were further gated on CD8^+ positive population. Percentage of PD-1^+ cells is expressed as PD-1 positive cells within the CD8^+ population.

[3] = test system: MM.1S-Luc-PD-L1 multiple myeloma cells; test: Orthotopic MM.1S-Luc-PD-L1 multiple myeloma mouse model, luminescent imaging; type: in vivo, NSG mice; conditions: BCMAxCD3 10 μg/kg single IV dose day 21, anti-PD-1 5 mg/kg IP twice a week
Description: MM.1 S-Luc multiple myeloma cells were engineered to express PD-L1 and are referred to as MM.1S-Luc-PD-L1. MM.1S-Luc-PD-L1 cells were prepared as a single cell suspension of 5×10^6 cells for intravenous (IV) inoculation into NSG mice.
Tumor growth was monitored by luminescent imaging by intraperitoneal (IP) injection of luciferin solution in DPBS and imaged using Perkin Elmer IVIS Spectrum camera system. Animals were administered 2×10^7 expanded human T cells IV 19 days after tumor cell inoculation. Two days following T cell administration, a single dose of the BCMAxCD3 bispecific (10 μg/kg) was administered as a bolus IV injection. Anti-PD-1 antibody was administered twice a week as a bolus IP injection at 5 mg/kg for a total of 6 injections.
Tumor growth was monitored via imaging measurements collected twice weekly. Mice were imaged using the Perkin Elmer IVIS Spectrum camera system with automatic parameter determination and a maximum imaging time of 3 minutes. Living Image software was used to collect the data. Regions of Interest (ROIs) were drawn around the entire body of the mouse, excluding as much as possible of the tail. Background flux, as measured on the anesthesia manifold, is subtracted from each ROI. Tumor measurements are expressed as total flux expressed in photons/sec (p/s). Study was terminated at day 40 post tumor inoculation.

Substance: PF-06863135: heterodimeric humanized full-length bispecific antibody, one BCMA binding arm and one CD3 binding arm, modified human IgG2Δa Fc
- body weight as factor on PF-06863135 exposure [1]: not a clinically relevant factor
- Raji Cell Viability (Raji-luc lymphoma cells; BCMA × CD3 0.00064 nM): 94 ± 3.7 % control
- Raji Cell Viability (Raji-luc lymphoma cells; BCMA × CD3 0.0032 nM): 107 ± 4.5 % control
- Raji Cell Viability (Raji-luc lymphoma cells; BCMA × CD3 0.016 nM): 105.8 ± 10.2 % control
- Raji Cell Viability (Raji-luc lymphoma cells; BCMA × CD3 0.08 nM): 89.3 ± 5.7 % control
- Raji Cell Viability (Raji-luc lymphoma cells; BCMA × CD3 0.4 nM): 88.1 ± 18.4 % control
- Raji Cell Viability (Raji-luc lymphoma cells; BCMA × CD3 2 nM): 71 ± 9.7 % control
- Raji Cell Viability (Raji-luc lymphoma cells; BCMA × CD3 10 nM): 82.1 ± 9.7 % control
- Raji Cell Viability (Raji-luc lymphoma cells; BCMA × CD3 50 nM): 80 ± 13.2 % control
- % PD-1 (of CD8+ T cells) ([2]; 3 hours): 12.8 ± 0.6%
- % PD-1 (of CD8+ T cells) ([2]; 24 hours): 18.9 ± 1.2%
- % PD-1 (of CD8+ T cells) ([2]; 48 hours): 69.9 ± 3.1%
- % PD-1 (of CD8+ T cells) ([2]; 72 hours): 69.9 ± 3.1%
- Tumor measurements expressed as total flux ([3]; day 15 post tumor cell inoculation (before dosing)): 1.513 × 10^7 p/s
- Tumor measurements expressed as total flux ([3]; day 18 post tumor cell inoculation (before dosing)): 8.343 × 10^7 p/s
- Tumor measurements expressed as total flux ([3]; day 20 post tumor cell inoculation (before dosing)): 1.788 × 10^8 p/s
- Tumor measurements expressed as total flux ([3]; day 25 post tumor cell inoculation): 2.2729 × 10^7 p/s
- Tumor measurements expressed as total flux ([3]; day 28 post tumor cell inoculation): 7.082 × 10^7 p/s
- Tumor measurements expressed as total flux ([3]; day 32 post tumor cell inoculation): 7.076 × 10^7 p/s
- Tumor measurements expressed as total flux ([3]; day 35 post tumor cell inoculation): 8.712 × 10^8 p/s
- Tumor measurements expressed as total flux ([3]; day 39 post tumor cell inoculation): 6.776 × 10^8 p/s
